Experimental data as given in paper PMC6369001 (European journal of medicinal chemistry, 2019).
pKi: −log10 of the molar value. Where a name gives a salt, the structure may show the parent alone.

Assays:
[1] = biological target: T1, σ2R (Rattus norvegicus, UniProt Q5U3Y7); experiment: σ2R radioligand competition binding; settings: selectivity ratio σ1R over σ2R
T1 sequence (Q5U3Y7 1-176): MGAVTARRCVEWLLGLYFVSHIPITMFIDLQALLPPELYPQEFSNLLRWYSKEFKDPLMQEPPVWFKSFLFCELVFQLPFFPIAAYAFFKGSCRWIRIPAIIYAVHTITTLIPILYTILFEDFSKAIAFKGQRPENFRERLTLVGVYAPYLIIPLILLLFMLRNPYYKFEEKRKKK

[2] = biological target: norepinephrine transporters (Rattus norvegicus, UniProt Q63380); experiment: Norepinephrine transporter binding
[3] = system: cocaine-induced convulsions; experiment: In vivo cocaine-induced convulsion studies; settings: mice, 10 mg/kg i.p. pretreatment; P<0.005 vs vehicle, Fisher's exact test
[4] = system: effects of cocaine; settings: cited from earlier work; for Effects against cocaine in behavioral models: rodents, ref 32 (compound 1), ref 34 (compound 2)
[5] = system: effects of methamphetamine; settings: mice; ref 33 (compound 1), ref 35 (compound 2, pretreatment); cited from earlier work
[6] = biological target: Serotonin (5-HT2) receptors (Rattus norvegicus, UniProt P14842); experiment: Serotonin; assay type: binding; settings: ratio of Ki 5-HT2 to Ki σ2R
[7] = biological target: serotonin transporters (Rattus norvegicus, UniProt P31652); experiment: Serotonin transporter binding; settings: ratio of Ki serotonin transporter to Ki σ2R
Chain of serotonin transporters (P31652 whole entry): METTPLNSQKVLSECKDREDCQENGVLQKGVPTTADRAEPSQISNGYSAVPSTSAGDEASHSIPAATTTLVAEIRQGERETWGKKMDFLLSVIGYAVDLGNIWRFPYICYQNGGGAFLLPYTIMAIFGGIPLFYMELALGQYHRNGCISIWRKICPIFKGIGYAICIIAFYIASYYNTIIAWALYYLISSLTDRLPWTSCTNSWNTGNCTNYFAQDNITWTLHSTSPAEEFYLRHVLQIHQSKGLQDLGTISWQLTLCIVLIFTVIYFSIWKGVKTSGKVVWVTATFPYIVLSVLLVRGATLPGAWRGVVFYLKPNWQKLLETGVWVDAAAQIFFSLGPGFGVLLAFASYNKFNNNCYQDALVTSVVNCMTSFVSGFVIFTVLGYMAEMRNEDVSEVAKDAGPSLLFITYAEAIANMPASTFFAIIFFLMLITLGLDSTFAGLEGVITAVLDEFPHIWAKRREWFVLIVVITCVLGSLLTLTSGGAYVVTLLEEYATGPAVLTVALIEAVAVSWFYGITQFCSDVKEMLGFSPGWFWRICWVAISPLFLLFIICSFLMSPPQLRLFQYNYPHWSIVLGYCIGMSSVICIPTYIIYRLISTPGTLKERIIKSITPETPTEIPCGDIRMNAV

Chain of norepinephrine transporters (Q63380 1-617): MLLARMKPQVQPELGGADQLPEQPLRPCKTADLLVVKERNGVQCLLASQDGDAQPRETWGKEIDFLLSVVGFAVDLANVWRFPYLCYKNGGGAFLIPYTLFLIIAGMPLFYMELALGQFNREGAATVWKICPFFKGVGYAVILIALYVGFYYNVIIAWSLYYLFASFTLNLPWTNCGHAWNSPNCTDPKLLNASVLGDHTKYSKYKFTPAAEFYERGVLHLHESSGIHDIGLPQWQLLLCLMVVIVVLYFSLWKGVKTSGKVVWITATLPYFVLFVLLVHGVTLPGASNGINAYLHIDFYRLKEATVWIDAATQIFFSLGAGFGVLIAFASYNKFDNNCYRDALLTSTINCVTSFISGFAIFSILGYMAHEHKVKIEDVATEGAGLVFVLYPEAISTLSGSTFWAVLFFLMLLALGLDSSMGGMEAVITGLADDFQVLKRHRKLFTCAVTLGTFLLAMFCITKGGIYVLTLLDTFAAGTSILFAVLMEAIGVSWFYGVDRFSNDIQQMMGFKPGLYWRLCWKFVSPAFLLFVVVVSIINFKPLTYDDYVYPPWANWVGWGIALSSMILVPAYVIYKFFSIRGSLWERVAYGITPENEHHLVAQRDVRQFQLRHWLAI
Chain of Serotonin (5-HT2) receptors (P14842 whole entry): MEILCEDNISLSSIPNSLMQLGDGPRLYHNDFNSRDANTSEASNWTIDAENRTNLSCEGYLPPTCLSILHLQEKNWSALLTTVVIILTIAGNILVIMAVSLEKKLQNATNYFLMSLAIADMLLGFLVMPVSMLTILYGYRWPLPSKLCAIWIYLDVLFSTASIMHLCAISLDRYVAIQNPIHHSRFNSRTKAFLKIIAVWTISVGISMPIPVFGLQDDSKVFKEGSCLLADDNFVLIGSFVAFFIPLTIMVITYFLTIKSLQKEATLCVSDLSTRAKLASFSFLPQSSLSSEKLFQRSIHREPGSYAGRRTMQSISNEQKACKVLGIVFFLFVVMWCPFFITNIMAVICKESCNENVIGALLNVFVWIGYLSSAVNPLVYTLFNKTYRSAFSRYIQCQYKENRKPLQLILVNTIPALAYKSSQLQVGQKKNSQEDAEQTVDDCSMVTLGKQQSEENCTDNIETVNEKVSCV

SMILES	pKi [2]	Effects against cocaine in behavioral models [4]	Effects against methamphetamine [5]	also measured
CCCn1c(=O)n(CCCCN2CCN(c3ccc(F)cc3)CC2)c2ccccc21 [Compound 14]	< 5.00	–	–	Ki σ1/ Ki σ2 [1]: > 1000; Protective effect against cocaine-induced convulsions, statistical significance [3]: statistically significant
S=c1sc2ccccc2n1CCCCN1CCN(C2CCCCC2)CC1 [Compound 1, 3-[4-(4-cyclohexylpiperazin-1-yl)butyl]-2(3H)-benzothiazolethione]	–	produced both acute and subchronic effects against cocaine	mitigate the effects of methamphetamine	–
CCCCCn1c(=O)n(CCCCN2CCN(c3ccc(F)cc3)CC2)c2ccccc21 [Compound 15, 1-{4-[4-(4-fluorophenyl)piperazin-1-yl]butyl}-3-pentyl-1,3-dihydrobenzimidazol-2-one dihydrochloride]	< 5.00	–	–	5-HT2/σ2R preference for σ2Rs [6]: 58 fold; 5-HTT/σ2R selectivity for σ2Rs [7]: 104 fold
CC(=O)c1ccc2c(c1)oc(=O)n2CCCCN1CCN(c2ccc(F)cc2)CC1 [Compound 2, 6-acetyl-3-{4-[4-(4-fluorophenyl)piperazin-1-yl]butyl}-2(3H)-benzoxazolone]	–	reduced the toxic and stimulant effects of cocaine	afforded protection against methamphetamine-induced hyperthermia, and striatal dopaminergic and serotonergic neurotoxicity	Sedation and incoordination ([4]; acute treatment): caused sedation and incoordination
